Assay results published in ChEMBL document CHEMBL2074342, “Kinetic analysis of rhodamines efflux mediated by the multidrug resistance protein (MRP1)” (Biophys J, 2003).

Each compound was assayed against Multidrug resistance-associated protein 1 (Homo sapiens, UniProt P33527) (assay: TP_TRANSPORTER: intracellular accumulation in MRP1-expressing GLC4/ADR cell). Details: glc-4/adr.
Sequence of Multidrug resistance-associated protein 1 (P33527 whole entry): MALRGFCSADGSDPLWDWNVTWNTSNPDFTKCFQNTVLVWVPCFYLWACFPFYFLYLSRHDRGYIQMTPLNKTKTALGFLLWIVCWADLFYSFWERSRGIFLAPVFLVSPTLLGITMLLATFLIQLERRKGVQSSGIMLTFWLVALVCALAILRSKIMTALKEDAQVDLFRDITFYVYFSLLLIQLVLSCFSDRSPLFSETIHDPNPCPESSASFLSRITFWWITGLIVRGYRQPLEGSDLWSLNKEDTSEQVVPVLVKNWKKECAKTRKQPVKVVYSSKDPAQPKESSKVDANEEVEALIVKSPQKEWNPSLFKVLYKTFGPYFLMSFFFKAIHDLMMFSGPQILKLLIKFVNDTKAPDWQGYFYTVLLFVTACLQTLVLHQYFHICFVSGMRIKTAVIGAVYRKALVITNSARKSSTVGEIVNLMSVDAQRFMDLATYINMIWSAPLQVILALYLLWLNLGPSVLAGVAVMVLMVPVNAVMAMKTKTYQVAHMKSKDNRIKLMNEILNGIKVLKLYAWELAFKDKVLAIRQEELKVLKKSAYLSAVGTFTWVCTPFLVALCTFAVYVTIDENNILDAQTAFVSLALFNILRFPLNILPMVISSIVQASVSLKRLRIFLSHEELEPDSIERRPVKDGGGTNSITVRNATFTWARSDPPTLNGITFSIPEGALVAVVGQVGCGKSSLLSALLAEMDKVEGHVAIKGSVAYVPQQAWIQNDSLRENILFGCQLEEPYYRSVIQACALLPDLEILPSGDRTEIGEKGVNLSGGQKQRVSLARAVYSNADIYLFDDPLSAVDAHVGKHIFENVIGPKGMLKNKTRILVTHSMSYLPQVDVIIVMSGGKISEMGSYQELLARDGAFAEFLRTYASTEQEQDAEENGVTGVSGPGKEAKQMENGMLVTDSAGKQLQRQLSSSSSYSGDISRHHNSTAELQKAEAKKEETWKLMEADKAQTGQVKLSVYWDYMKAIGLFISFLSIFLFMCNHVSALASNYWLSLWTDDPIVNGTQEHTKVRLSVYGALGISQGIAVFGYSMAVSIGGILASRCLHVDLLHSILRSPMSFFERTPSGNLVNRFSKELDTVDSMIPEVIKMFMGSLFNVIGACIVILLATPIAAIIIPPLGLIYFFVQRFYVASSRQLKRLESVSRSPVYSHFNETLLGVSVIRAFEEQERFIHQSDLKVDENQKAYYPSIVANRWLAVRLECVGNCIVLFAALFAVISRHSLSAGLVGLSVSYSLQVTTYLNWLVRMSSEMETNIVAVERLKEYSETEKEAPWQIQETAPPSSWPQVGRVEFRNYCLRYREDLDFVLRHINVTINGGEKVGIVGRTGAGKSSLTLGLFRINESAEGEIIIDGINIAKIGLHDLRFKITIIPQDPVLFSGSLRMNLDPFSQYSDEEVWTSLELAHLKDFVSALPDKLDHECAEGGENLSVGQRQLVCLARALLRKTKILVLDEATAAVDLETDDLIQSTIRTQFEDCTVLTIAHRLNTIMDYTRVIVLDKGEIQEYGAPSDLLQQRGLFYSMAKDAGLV
Type: functional, cell-based
With CC/N=c1\cc2oc3cc(NCC)c(C)cc3c(-c3ccccc3C(=O)OCC)c-2cc1C.Cl [RHODAMINE 6G HYDROCHLORIDE] the Activity was “substrate [+]”. In the case of CCOC(=O)c1ccccc1-c1c2ccc(=[N+](C)C)cc-2oc2cc(N(C)C)ccc12 [RHODAMINE I], the Activity is reported as “substrate [+]”. With COC(=O)c1ccccc1-c1c2ccc(=[N+](C)C)cc-2oc2cc(N(C)C)ccc12 [RHODAMINE II] the Activity was “substrate [+]”. In the case of CN(C)c1ccc2c(-c3ccccc3C(=O)[O-])c3ccc(N(C)C)cc3[o+]c2c1 [TETRAMETHYLRHODAMINE], the Activity is reported as “substrate [+]”.
